Source: article PMC11585928, “Screening the Global Health Priority Box against Plasmodium berghei liver stage parasites using an inexpensive luciferase detection protocol” (Malaria Journal, 2024)

Tests used:
[1] = test system: P. berghei liver stage schizonts; assay: microbe, parasite or virus in culture; type: cell-based; conditions: Plasmodium berghei, HepG2, 44 h, read-out: High Content Imaging (pEC50 ± SD) (converted)
Description: (§1) HepG2 seeding (1.75 × 10^4 cells/well), salivary gland dissection, sporozoite quantification, and sporozoite dilution were performed as described above. To test the titration of sporozoite in dose–response format with MMV390048, 20 µL of a 25 sporozoite/μL solution in HepG2 media was added to columns 1–8 of 384-well plates (inoculum of 500 sporozoites/well), 20 μL of 50 sporozoites/μL was added into columns 9–16 (inoculum of 1000 sporozoites/well), and 20 μL of 100 sporozoites/μL was added into columns 17–24 (inoculum of 2000 sporozoites/well). To test legacy anti-malarials, two independent experiments were performed for each endpoint (FLAR or HCI), each with an independent production run of P. berghei sporozoites. […] Infected plates were spun for 5 min at 200 RCF and kept for 3 h at 37 °C and 5% CO2 prior to compound treatment.
(§2) Compound treatment was performed as previously described. Dose–response source plates containing 5 μL of 1000 × test compounds in a serial dilution in DMSO were prepared in low volume 384-well plates using a Biomek 4000 (Beckman Coulter). Assay plates were treated by transferring 40 nL from screening or dose–response source plates using a pin tool (V&P Scientific) affixed to a Biomek NXp, resulting in a final test concentration of 1 × in media.
After 44 h, dose–response plates designated for the FLAR endpoint underwent the freeze/thaw lysis method before detection with 1 × FLAR completed with 1 × D-luciferin and ATP endpoint described above. Plates designated for the HCI endpoint were fixed with 4% paraformaldehyde (Thermo Scientific, cat 043368.9 M) in PBS for 20 min. Following fixation, the plate was washed twice by adding and then dumping 20 µL of PBS/well. Plates were then stained with 50 ng/mL of mouse anti-Plasmodium glyceraldehyde 3-phosphate dehydrogenase (GAPDH) (European Malaria Reagent Repository, cat 13.3) diluted in a 0.3% Triton X and 1% BSA permeabilization and blocking stain buffer overnight at 4 °C. Following three washes with PBS, plates were stained with 2 µg/mL of goat anti-mouse AlexaFluor 488 (Invitrogen, cat A11001) diluted in stain buffer and again incubated overnight at 4 °C. Following three washes with PBS, plates were counterstained with 10 µg/mL Hoechst 33342 (Invitrogen, cat H21492) for 30 min before two washes. Plates were imaged on an ImageXpress Micro Confocal high content system (Molecular Devices). Raw values (either parasite growth area for HCI or Relative Light Units (RLU) for FLAR) were normalized to the positive (MMV390048) or negative (DMSO) controls using the equation: %Inhibition=100×RawData-AverageNegativeControl/AveragePositiveControl-AverageNegativeControl and curve fitting was performed with CDD Vault using the Levenberg–Marquardt algorithm. Potency data from all plates were collected, visualized, and analysed using GraphPad Prism (Version 10.0.3). Potency values for legacy anti-malarials obtained from our FLAR endpoint were compared to those previously reported from a 1536-well plate format using a Bright-Glo™ luciferase detection protocol.

[2] = test system: luciferase-expressing P. berghei liver stage schizonts; assay: P. berghei liver stage dose-response assay in HepG2, FLAR luciferase endpoint (legacy anti-malarials); type: cell-based; conditions: Plasmodium berghei, HepG2, 44 h, read-out: FLAR (pEC50 ± SD) (converted)
Description: All stock reagents were stored at 4 °C, except D-luciferin, ATP, and DTT which were aliquoted and stored at − 20 °C. Tricine, MgSO4, and MgCO3 stocks were all adjusted to have a pH of 7.8.
as §1, with “To” for “HepG2 seeding (1.75 × 10^4 cells/well), salivary gland dissection, sporozoite quantification, and sporozoite dilution were performed as described above. To”
as §2
After 44 h, dose–response plates designated for the FLAR endpoint underwent the freeze/thaw lysis method before detection with 1 × FLAR completed with 1 × D-luciferin and ATP endpoint described above. […] Following fixation, the plate was washed twice by adding and then dumping 20 µL of PBS/well. […] Plates were imaged on an ImageXpress Micro Confocal high content system (Molecular Devices). Raw values (either parasite growth area for HCI or Relative Light Units (RLU) for FLAR) were normalized to the positive (MMV390048) or negative (DMSO) controls using the equation: %Inhibition=100×RawData-AverageNegativeControl/AveragePositiveControl-AverageNegativeControl and curve fitting was performed with CDD Vault using the Levenberg–Marquardt algorithm. Potency data from all plates were collected, visualized, and analysed using GraphPad Prism (Version 10.0.3). Potency values for legacy anti-malarials obtained from our FLAR endpoint were compared to those previously reported from a 1536-well plate format using a Bright-Glo™ luciferase detection protocol.

[3] = test system: P. berghei liver schizonts; assay: GHPB single point primary screen, FLAR luciferase endpoint; type: cell-based, Plasmodium berghei; conditions: 1 µM; hit = > 80% inhibition of P. berghei and < 15% inhibition of HepG2
Description: The GHPB is an open-access collection of compounds (80 for vector control, 80 for zoonotic and neglected diseases, 80 for drug resistant malaria) obtained from MMV. The library was supplied in a 96-well microtitre plate and moved into a low-volume 384-well plate (Greiner Bio-One, cat 784,261) using a Biomek NXp to transfer 5 μL of 1 mM compound into the destination wells. MMV390048 (1 µM) was used for the positive control wells and DMSO (0.1% v/v) was used for the negative control wells. The GHPB was screened by seeding 5 × 10^3 cells/well which, after 24 h, were infected with a maximum available inoculum of 1.44 × 10^3 sporozoites/well. Three hours post-infection, plates were treated with a pin tool as described above. After 44 h, media was dumped from the plate, lysed using the freeze/thaw method, and luciferase signal was detected with 1 × FLAR as described above.

[4] = test system: P. berghei liver schizonts; assay: GHPB dose-response confirmation, FLAR luciferase endpoint; type: cell-based, Plasmodium berghei; conditions: grouped as selectively active, active but with low selectivity, nonselective or inactive
Description: A total of 35 compounds were identified for resupply of fresh powder for confirmation in dose–response assays. […] Powders were diluted to 50 mM in DMSO and plated in 1000 × source plates as described above. MMV390048 and puromycin were plated as the positive control for P. berghei liver schizont activity and cytotoxicity, respectively. Two independent experiments using 1 × FLAR and 5 × 10^3 cells/well were performed to assess the potency of these compounds against P. berghei liver schizonts, each with an independent production run of P. berghei sporozoites. […] Separately, two independent runs of the HepG2 cultured in galactose, assayed as described above, were used to assess the cytotoxicity potency and selectivity indices for these compounds. Both P. berghei liver schizont and HepG2 cytotoxicity data were loaded into CDD Vault for normalization, curve fitting, and EC50 calculations as described above. Receiver-operator characteristic (ROC) curves were generated using Graphpad Prism and area under the curve (AUC) was calculated using the Wilson/Brown method for both P. berghei liver schizont activity and HepG2 cytotoxicity.

HepG2 cells = assay: HepG2 cytotoxicity assay in galactose media, 72 h, hepatic nuclei count by HCI; type: cell-based, Homo sapiens
Description: To assess the general cytotoxicity of GHPB compounds, HepG2 cells were cultured in media containing galactose instead of glucose to avoid false negatives due to the Crabtree effect. Following propagation of HepG2 in T-75 flasks with glucose-containing media as above, media was aspirated, the cell monolayer was washed with PBS, and then cells were trypsinized as above. Released cells were then resuspended in media containing glucose-free DMEM (Gibco, cat 11,966–025) supplemented with 10% FBS (Corning, cat 35–016-CV), 10 mM galactose (Sigma, cat G5388), 1 mM sodium pyruvate (Corning, cat 25–000-CI), 1 × penicillin–streptomycin-neomycin mix (Gibco, cat 15,640–055), and 2 mM L-glutamine (Gibco, cat 25,030–081). The cell density was calculated using trypan blue exclusion on a haemocytometer, diluted to 50 cells/µL, and 40 µL of cells were seeded into collagen-coated 384-well plates (Greiner Bio-One, cat 781,956) using a Biomek NXp (Beckman Coulter), resulting in 2 × 10^3 cells/well. The day after seeding, plates were treated with a pin tool as above and cultured for 72 h. Plates were then fixed with 4% paraformaldehyde, stained with 10 µg/mL Hoechst 33,342, and imaged on an ImageXpress Micro Confocal. Hepatic nuclei were quantified using MetaXpress (Molecular Devices) image analysis software. Both P. berghei liver schizont and HepG2 cytotoxicity data were loaded into CDD Vault for normalization and hit selection as described above. A total of 35 compounds were identified for resupply of fresh powder for confirmation in dose–response assays. […] Powders were diluted to 50 mM in DMSO and plated in 1000 × source plates as described above. […] Separately, two independent runs of the HepG2 cultured in galactose, assayed as described above, were used to assess the cytotoxicity potency and selectivity indices for these compounds. […] Receiver-operator characteristic (ROC) curves were generated using Graphpad Prism and area under the curve (AUC) was calculated using the Wilson/Brown method for both P. berghei liver schizont activity and HepG2 cytotoxicity.

Structure (SMILES) | EC50 [1] [nM] | EC50 [2] [nM] | activity and selectivity in the primary screens [3] | Activity (grouping in dose-response confirmation runs) [4] | HepG2 Cytotoxicity (pEC50 ± SD) (HepG2 cells)
C[C@H]1[C@@H](O)O[C@@H]2O[C@@]3(C)CC[C@H]4[C@H](C)CC[C@@H]1[C@@]24OO3 [Artenimol (DHA), dihydroartemisinin] | > 10000 | > 10000 |  |  | 
c1cc([C@H]2CC[C@]3(CC2)OO[C@]2(O3)C3CC4CC(C3)CC2C4)ccc1OCCN1CCOCC1 [Artefenomel (OZ439), Artefenomel] | > 1230 | > 28800 |  |  | 
C[C@H]1Cc2c([nH]c3cc(Cl)c(F)cc23)[C@@]2(N1)C(=O)Nc1ccc(Cl)cc12 [Cipargamin] | 9.55 | 10.2 |  |  | 
CS(=O)(=O)c1ccc(-c2cnc(N)c(-c3ccc(C(F)(F)F)nc3)c2)cc1 [MMV390048] | 63.1 | 64.6 |  |  | 
O=C(Nc1ncccc1O)c1ccc(N2CCOCC2)nc1 [MMV1103183] |  |  | active and selective | active and selective | 5.03 ± 0.02
COc1cc(C)c2c(Oc3cccc(C(F)(F)F)c3)c(OC)cc(NC(C)CCCN)c2n1 (centres unmarked) [Tafenoquine] | > 3390 | > 1580 |  |  | 
CO[C@H]1O[C@@H]2O[C@@]3(C)CC[C@H]4[C@H](C)CC[C@@H]([C@H]1C)[C@@]24OO3 [Artemether] | > 37200 | > 1070 |  |  | 
COc1cc(Cc2cnc(N)nc2N)cc(OC)c1OC [Trimethoprim] | 1740 | 1290 |  |  | 
CCCCN(CCCC)CC(O)c1cc(Cl)cc2c1-c1ccc(Cl)cc1/C2=C/c1ccc(Cl)cc1 (centres unmarked) [Lumefantrine] | > 5750 | > 5750 |  |  | 
COc1cc(NC(C)CCCN)c2ncccc2c1 (centres unmarked) [Primaquine] | > 10000 | > 5370 |  |  | 
CC(C)(N)CNC(=O)C[C@H]1CC[C@]2(CC1)OO[C@]1(O2)C2CC3CC(C2)CC1C3 [Arterolane (OZ277), Arterolane] | > 3020 | > 10000 |  |  | 
Cc1cc(Nc2ccc(S(F)(F)(F)(F)F)cc2)n2nc(C(C)(F)F)nc2n1 [DSM265] | 11.2 | 16.6 |  |  | 
C[C@@H]1CC[C@H]2[C@@H](C)C(=O)O[C@@H]3O[C@@]4(C)CC[C@@H]1[C@]32OO4 [Artemisinin] | > 50100 | > 50100 |  |  | 
C[C@H]1[C@H](OC(=O)CCC(=O)O)O[C@@H]2O[C@@]3(C)CC[C@H]4[C@H](C)CC[C@@H]1[C@@]24OO3 [Artesunate] | > 16600 | > 16600 |  |  | 
CN(C)c1ccc2nc3ccc(=[N+](C)C)cc-3sc2c1 [Methylene Blue] | 295 | 219 |  |  | 
CCN(CC)CCCC(C)Nc1ccnc2cc(Cl)ccc12 (centres unmarked) [Chloroquine] | > 10000 | > 10000 |  |  | 
CCc1nc(N)nc(N)c1-c1ccc(Cl)cc1 [Pyrimethamine] | 19.5 | 33.9 |  |  | 
O=C1C(O)=C([C@H]2CC[C@H](c3ccc(Cl)cc3)CC2)C(=O)c2ccccc21 [Atovaquone] | 17 | 21.4 |  |  | 
CCOc1ccccc1NC(=O)Cn1c(=O)n(Cc2ccccc2)c(=O)c2c(C)c(C(=O)N(C)C)sc21 [MMV006430] |  |  |  |  | 4.94 ± 0.06
COc1ncnc(NS(=O)(=O)c2ccc(N)cc2)c1OC [Sulfadoxine] | > 10000 | > 10000 |  |  | 
Clc1ccc2c(N3CCN(CCCN4CCN(c5ccnc6cc(Cl)ccc56)CC4)CC3)ccnc2c1 [Piperaquine] | > 5750 | > 5250 |  |  | 
CC[C@H]1OC(=O)[C@H](C)[C@@H](O[C@H]2C[C@@](C)(OC)[C@@H](O)[C@H](C)O2)[C@H](C)[C@@H](O[C@@H]2O[C@H](C)C[C@H](N(C)C)[C@H]2O)[C@](C)(O)C[C@@H](C)CN(C)[C@H](C)[C@@H](O)[C@]1(C)O [Azithromycin] | > 10000 | > 10000 |  |  | 
